The source of these data is US20070212786A1, “Monitoring heparin by microelectronic devices” (priority 2005, published 2007).

The target in the assay is T1, AT-III (Homo sapiens, UniProt P01008).
T1 construct: purchased Bayer Corp
As to the kind of experiment: AT-III field-effect sensor binding (differential surface potential dose-response). Particulars: covalently immobilized biotinylated AT-III on the active sensor, BSA-passivated control sensor, dose-response curve FIG. 4B. The text has this:
In one embodiment, AT-III is used as a covalently immobilized surface receptor. In this embodiment, the present invention can monitor active heparin. FIG. 4A illustrates the surface immobilization chemistry according to this embodiment. The surface immobilization chemistry involves aldehyde-terminated silanization of the SiO2 surface, followed by the reductive amination of the aldehyde groups to the surface-exposed amino groups of avidin, blocking the unreacted sites by ethanolamine, and attachment of covalently-immobilized avidin to biotinylated AT-III. […] Upon deblocking, the resulting bAT-III remains fully active because the heparin-binding site remains intact and unhindered because the introduced biotin groups are positioned away from it. This immobilization strategy ensures full activity and the desired surface orientation of AT-III for maximizing the sensor performance. […] The selectivity of the AT-III sensor to heparin sequence was measured by examining the binding affinity to chondroitin sulfate, a negatively charged polysaccharide structurally related to heparin. […]
The surface potential of the filed sensitive region was determined by applying an AC signal (50 mV sine wave at 4 kHz) to the reference electrode and measuring the resulting current through the EIS structure with a current preamp (Keithley Model 428) and lock-in amplifier. […]

T1 sequence (P01008 33-464): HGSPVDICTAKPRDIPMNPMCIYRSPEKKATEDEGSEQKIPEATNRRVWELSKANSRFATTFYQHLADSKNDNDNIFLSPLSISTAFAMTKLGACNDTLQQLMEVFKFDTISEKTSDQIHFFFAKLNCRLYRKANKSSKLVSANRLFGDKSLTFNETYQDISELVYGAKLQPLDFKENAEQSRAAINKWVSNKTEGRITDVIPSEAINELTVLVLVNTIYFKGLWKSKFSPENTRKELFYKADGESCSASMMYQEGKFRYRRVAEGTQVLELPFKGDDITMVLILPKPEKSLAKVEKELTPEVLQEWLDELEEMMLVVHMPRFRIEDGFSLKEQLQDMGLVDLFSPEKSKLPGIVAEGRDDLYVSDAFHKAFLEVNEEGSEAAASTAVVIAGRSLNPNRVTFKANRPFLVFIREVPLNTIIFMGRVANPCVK

chondroitin sulfate: the “response of the AT-III sensor (binding affinity, selectivity versus heparin)” value is on record as “neglible”.
